The record followed here is patent publication US10702528B2, “Hepatitis B antiviral agents” (Enanta Pharmaceuticals, Inc., priority 2015, dated 2020).

For orientation: CC50 means the concentration at which the toxic effect on the cells reaches its halfway point. The low end stands for harm at low concentration, the high end for better tolerance by the cells. The term EC50 denotes the concentration needed to bring the measured effect to its halfway point.

Data set [1] can be described thus: Compound toxicity by ATPlite 1 Step (total ATP levels) in HepAD38 cells. The conditions noted are these: human, day of harvest, concentration reducing total ATP levels by 50% relative to no drug controls. Type of data set: cell-based. The method, then:
(§1) Methods: HepAD38 cells are maintained as previously reported (Ladner et al, Antimicrob. Agents Chemother. 1997, […], 1715). Briefly, cells are passaged upon attaining confluency in DMEM/F12 media in the presence of 10% FBS, Penn/Strep, 250 μg/mL G418, and 1 μg/ml tetracycline. Novel compounds are screened by first washing cells three times with PBS to remove tetracycline, and plating in 96 well plates at 35,000 cells/well. Compounds dissolved in DMSO are then diluted 1:200 into wells containing cells. Five days after compound addition, material is harvested for analysis. For an extended 8 day analysis, cells are plated and treated as described above, but media and compound are refreshed on d2 and d5 post initial treatment.
Additionally, on day of harvest, compound toxicity is evaluated by treating cells with ATPlite 1 Step according to the manufacturer's protocol. Compound concentrations that reduce total ATP levels in wells by 50% relative to no drug controls (CC50) are reported; CC50 ranges are as follows: A>30 μM; B 10-30 μM; C<10 μM.
On the technique in general: ATP-based viability assays read luminescence as a measure of living cells.

The next data set has as its system HBV. Kind of data set: HepAD38 antiviral screen: reduction of viral product accumulation (virion DNA by qPCR; HBsAg/HBeAg ELISA). Type of data set: cell-based. The conditions noted are these: Hepatitis B virus, 120 h; HepAD38 cells, harvest five days after compound addition; reduction of viral product accumulation relative to no drug controls; read-out: HepAD38 EC50. As to the method:
as §1
On harvest day, virion DNA is obtained by lysing with Sidestep Lysis and Stabilization Buffer and then quantified via quantitative real time PCR. Commercially available ELISA kits are used to quantitate the viral proteins HBsAg (Alpco) or HbeAg (US Biological) by following the manufacturer's recommended protocol after diluting samples to match the linear range of their respective assays. Irrespective of readout, compound concentrations that reduce viral product accumulation in the cell lysates or supernatants by relative to no drug controls (EC50) are reported; EC50 ranges are as follows: A<1 μM; B 1-10 μM; C>10 μM.
(In qPCR the cycle at which signal appears reflects the starting amount.)

Molecules are shown by their SMILES. Some results are limits rather than exact numbers.

Take `COCC1=C(c2ccn(C)n2)C(c2ccc(F)cc2Cl)N=C(c2nccs2)N1` (stereo not drawn) [Example 35]: the CC50 in data set [1] was above 30 µM. In addition, the EC50 in the data set on HBV is below 1 µM.
In turn, `CC1=C(C(=O)N(C)S(C)(=O)=O)C(c2ccc(F)cc2Cl)N=C(c2nccs2)N1` (racemic) [Example 22] returned a CC50 in data set [1] above 30 µM. For the same compound, the EC50 with HBV is above 10 µM.
`CCOC(=O)C1=C(C)NC(N2CCCC2=O)=NC1c1ccc(F)cc1Cl` (stereo not drawn) [Example 29]: the CC50 in data set [1] was above 30 µM. Also, the EC50 in the data set with HBV was above 10 µM.
The matching figures for `CC1=C(c2ccccn2)C(c2ccc(F)cc2Cl)N=C(c2nccs2)N1` (racemic) [Example 19]: above 30 µM and 1 to 10 µM.
The like results for `Cn1ccc(C2=C(CC#N)NC(c3nccs3)=NC2c2ccc(F)cc2Cl)n1` (stereo not drawn) [Example 40] were, in that order, above 30 µM and 1 to 10 µM.
The like results for `CCOC(=O)C1=C(CC2CC(F)(F)C[C@H]2C(=O)O)NC(c2nccs2)=NC1C1CCCC1` (stereo partly drawn) [Example 7] were, in that order, above 30 µM and 1 to 10 µM.
With `CC1=C(c2ncccn2)C(c2ccc(F)cc2Cl)N=C(c2nccs2)N1` (racemic) [Example 20], the CC50 in data set [1] is above 30 µM. Besides, the EC50 in the data set on HBV fell in the range of 1 to 10 µM.
The matching figures for `CC(=O)C1=C(C)NC(c2nccs2)=NC1c1ccc(F)cc1Cl` (racemic) [Example 11]: above 30 µM and below 1 µM.
`CC1=C(c2ccn(C)n2)C(c2ccc(F)cc2Cl)N=C(c2nccs2)N1` (racemic) [Example 16] came in with a CC50 in data set [1] above 30 µM. Also, the EC50 with HBV was below 1 µM.
The matching figures for `CC1=C(c2nn[nH]n2)C(c2ccc(F)cc2Cl)N=C(c2nccs2)N1` (stereo not drawn) [Example 27]: above 30 µM and above 10 µM.
For `CCOC(=O)C1=C(CN2CC(F)(F)C[C@H]2C(=O)NS(C)(=O)=O)NC(c2nccs2)=NC1c1ccc(F)cc1Cl` (stereo partly drawn) [Example 2], the CC50 in data set [1] was above 30 µM. Moreover, the EC50 in the data set on HBV fell in the range of 1 to 10 µM.
The like results for `CC1=C(C#N)C(c2ccc(F)cc2Cl)N=C(c2nccs2)N1` (stereo not drawn) [Example 32] were, in that order, above 30 µM and below 1 µM.
The matching figures for `CC1=C(c2ncco2)[C@H](c2ccc(F)cc2Cl)N=C(c2nccs2)N1` (single isomer, unassigned) [Example 13b]: above 30 µM and below 1 µM.
In data set [1], `CC1=C(CN(C)C)C(c2ccc(F)cc2Cl)N=C(c2nccs2)N1` (racemic) [Example 8] yielded a CC50 above 30 µM. Also, in the data set on HBV, the EC50 was above 10 µM.
In data set [1], `CCOC(=O)[C@@H]1CC(F)(F)CN1CC1=C(C(=O)NS(C)(=O)=O)C(c2ccc(F)cc2Cl)N=C(c2nccs2)N1` (stereo partly drawn) [Example 4] gave a CC50 above 30 µM. The half-maximal effective concentration (EC50) in the data set on HBV was above 10 µM.
